Patent US11491158B2, “N-(substituted-phenyl)-sulfonamide derivatives as kinase inhibitors” (Nerviano Medical Sciences S.R.L., priority 2016, dated 2022)

Molecular target: PERK recombinant enzyme (cytoplasmic domain corresponding to residues 540-1115) (Homo sapiens (Human), UniProt Q9NZJ5)
Assay: PERK enzyme assay, Method 1: ADP-Glo Kinase Assay (quantification of ADP formed)
Format: biochemical
Details: 52 microM ATP, 8 nM PERK, 300 microM elF2alpha peptide substrate, 60 minutes
Procedure: The biochemical activity of compounds was determined by incubation with PERK recombinant enzyme (cytoplasmic domain corresponding to residues 540-1115) and elF2alpha peptide substrate (Aminoacid sequence: LLSELSRRRIRSINK—SEQ ID Nr: 1; purchased from American Peptide Company, product #341923). This was followed by:
Method 1: Quantification of the ADP Formed from the Kinase Reaction by ADP-Glo™ Kinase Assay (Promega Cat. 9102). Utra Pure ATP was Included into ADP-Glo™ Kinase Assay Kit. […]
After 60 minutes, an equal volume (15 microL) of ADP-Glo™ Reagent was added to each well to terminate the kinase reaction and deplete the remaining ATP. After 40 minutes, 30 microL of Kinase Detection Reagent is added, which simultaneously converts ADP to ATP and allows the newly synthesized ATP to be measured using a coupled luciferase/luciferin reaction. After further 40 minutes luminescence was read by ViewLux Instrument (Perkin Elmer). The data are analyzed by GraphPad Prism software which provides sigmoidal fittings of the curves for IC50 determination using a 4 parameter logistic equation: y=bottom+(top−bottom)/(1+10^((log IC50−x)*slope)) where x is the logarithm of the inhibitor concentration, y is the response; y starts at bottom and goes to top with a sigmoid shape. Method 2: Quantification of the Phosphorylated Product Formed from the Kinase Reaction in Presence of ATP (Aldrich, Cat #A2620-9).

PERK recombinant enzyme (cytoplasmic domain corresponding to residues 540-1115), sequence (Q9NZJ5 540-1115): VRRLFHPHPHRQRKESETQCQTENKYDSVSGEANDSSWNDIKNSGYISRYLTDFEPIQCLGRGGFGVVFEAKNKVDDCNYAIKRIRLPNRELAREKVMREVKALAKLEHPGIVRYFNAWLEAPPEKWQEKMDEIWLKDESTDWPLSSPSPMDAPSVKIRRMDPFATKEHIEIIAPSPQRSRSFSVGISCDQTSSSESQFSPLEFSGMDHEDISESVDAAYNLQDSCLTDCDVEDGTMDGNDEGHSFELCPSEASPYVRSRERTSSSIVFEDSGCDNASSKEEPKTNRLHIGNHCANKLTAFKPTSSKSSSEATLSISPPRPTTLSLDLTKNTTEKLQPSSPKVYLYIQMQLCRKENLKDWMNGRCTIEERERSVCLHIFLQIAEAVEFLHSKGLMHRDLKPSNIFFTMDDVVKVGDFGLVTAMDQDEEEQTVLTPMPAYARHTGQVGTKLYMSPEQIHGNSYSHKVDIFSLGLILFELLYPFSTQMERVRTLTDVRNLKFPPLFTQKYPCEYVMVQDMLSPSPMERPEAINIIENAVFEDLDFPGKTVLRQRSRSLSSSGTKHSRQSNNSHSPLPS

COc1ccc(S(=O)(=O)Nc2cccc(-c3csc4ccnc(N)c34)c2F)cc1C [Cmpd 60, N-[3-(4-Amino-thieno[3,2-c]pyridin-3-yl)-2-fluoro-phenyl]-4-methoxy-3-methyl-benzenesulfonamide]
pIC50: C (pIC50 < 6.8)
